Test results: patent EP3095787A1, “[…] ACTIVE COMPOUNDS AS DAG-LIPASE INHIBITORS” (Universiteit Leiden, priority 2015, dated 2016)
“Also recorded” adds a separate entry of the source.

Tests used:
Format in all cases: biochemical
DAGL-β = biological target: T1, DAGL-β (Mus musculus, UniProt Q91WC9); test: Competitive ABPP with MB064 in mouse spleen membrane proteome; settings: 10 µM compound, MB064 1.0 µM
T1 construct: from tissue; host or cells: mouse spleen membrane proteome
T1 sequence (Q91WC9 1-669): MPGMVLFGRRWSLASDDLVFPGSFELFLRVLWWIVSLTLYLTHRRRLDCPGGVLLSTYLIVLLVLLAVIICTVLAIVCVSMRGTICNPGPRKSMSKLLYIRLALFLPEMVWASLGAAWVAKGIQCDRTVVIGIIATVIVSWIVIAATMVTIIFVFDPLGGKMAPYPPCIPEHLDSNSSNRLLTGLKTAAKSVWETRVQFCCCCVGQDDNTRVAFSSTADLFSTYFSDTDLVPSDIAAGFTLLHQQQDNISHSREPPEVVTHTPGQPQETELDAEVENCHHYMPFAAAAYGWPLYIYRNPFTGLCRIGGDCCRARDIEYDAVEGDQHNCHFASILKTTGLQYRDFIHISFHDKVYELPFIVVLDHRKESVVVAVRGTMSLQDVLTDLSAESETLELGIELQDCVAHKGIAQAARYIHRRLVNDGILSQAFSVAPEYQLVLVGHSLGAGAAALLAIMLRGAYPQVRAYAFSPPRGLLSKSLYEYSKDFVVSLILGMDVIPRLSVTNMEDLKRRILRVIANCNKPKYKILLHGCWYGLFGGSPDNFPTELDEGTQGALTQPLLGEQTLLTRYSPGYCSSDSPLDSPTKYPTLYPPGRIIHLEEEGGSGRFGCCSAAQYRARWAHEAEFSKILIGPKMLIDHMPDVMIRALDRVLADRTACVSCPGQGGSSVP

serine hydrolases [1] = test: Comparative and competitive gel ABPP selectivity in mouse brain membrane proteome (TAMRA-FP and MB064); settings: 10 µM; TAMRA-FP 500 nM and MB064 250 nM
Protocol: For gel based ABPP experiments mouse brain proteome (2.0 mg/mL, 20 µL) was preincubated for 30 min with vehicle (DMSO) or compound to be tested in 0.5 µL DMSO at rt. And subsequently treated with 500 nM (final concentration) TAMRA-FP (TAMRA-FP was bought at Thermo Fischer) for 15 minutes at rt. The reactions were quenched with 10 µL standard 3 x SDS page sample buffer. The samples were directly loaded and resolved on SDS page gel (10 % acrylamide). The gels were scanned with a ChemiDoc MP sytem (Biorad, Cy 3 settings, 605/50 filter) and analyzed using Image Lab 4.1.
To investigate the selectivity of compound 25 in the mouse brain proteome comparative and competitive ABPP was used with a broad-spectrum FP-based probe (TAMRA-FP) and the tailored DAGL-α ABP MB064. As a reference the widely used β-lactone-based DAGL-inhibitors THL and OMDM-188, two broad-spectrum covalent and irreversible serine hydrolase inhibitors, were firstly tested.

serine hydrolases [2] = test: Chemoproteomics with THL-biotin (MB108) and FP-biotin in mouse brain membrane proteome: other serine hydrolases; settings: 10 µM, 30 min
Protocol: Since, the human serine hydrolase family contains approximately 200 family members, the selectivity in brain proteome was examined in a broader and more detailed manner. […] Mouse brain proteome (500 μL, 2.0 mg/mL) membrane or soluble fraction was incubated with vehicle (DMSO) or inhibitor (10 μM) in DMSO for 30 minutes at rt. The proteome was labeled with MB108 (2.5 μM, 30 minutes, rt) or FP-Biotin (5 μM, 30 minutes, 37 °C). Subsequently the labeling reaction was quenched and excess probe was removed by chloroform methanol precipitation. Precipitated proteome was suspended in 500 μL 6M Urea/25 mM ammonium bicarbonate and allowed to incubate for 15 minutes. 5 μL (1 M DTT) was added and the mixture was heated to 65 °C for 15 minutes. […] The sample was diluted with 6 mL PBS. 100 μL of 50% slurry of Avidin-Agarose from egg white (Sigma-Aldrich) was washed with PBS and added to the proteome sample. The beads were incubated with the proteome > 2h. The beads were isolated by centrifugation and washed with 0.5% (wt/vol) SDS and PBS (3x). […] Tryptic peptides were analyzed on a Surveyor nanoLC system (Thermo) hyphenated to a LTQ-Orbitrap mass spectrometer (Thermo). […] Fragmented precursor ions that were measured twice within 10 s were dynamically excluded for 60 s and ions with z < 2 or unassigned were not analyzed. […]

Cc1ccc(-c2cnc3nc(C(=O)CCCCCc4ccccc4)oc3c2)cc1 [Compound 25, 1-(6-(p-Tolyl)oxazolo[4,5-b]pyridin-2-yl)-6-phenylhexan-1-one]
Native DAGL-β activity (labeling by MB064) (DAGL-β): can block labeling of endogenously expressed DAGL-β; also recorded: could also be inhibited | labeling of other bands (selectivity) (serine hydrolases [1]): excellent selectivity; also recorded: did not inhibit labeling of any other band | labeling of other serine hydrolases (serine hydrolases [2]): no other targets were detected; also recorded: not of any other serine hydrolase identified
